Series [1] is described as follows: Solubility of the drug in vehicles (drug saturated solutions). The class given is physicochemical.
A short description of series [2]: Franz diffusion cell skin drug permeation through cadaver skin, 24 hour period, HPLC. It counts as in vitro ADME. Particulars: for Flux: cadaver skin; for Skin Flux: Table 4 (examples). As to the method:
As a way of measuring the skin drug permeation properties of the COX-2 inhibitors, a Franz diffusion cell was provided utilizing cadaver skin as the membrane and a 1% Tween 80 solution as the receptor phase. Frozen cadaver skin was thawed at room temperature and punched with a 20 mm puncher. The receptor compartment of the Franz diffusion cell was filled with 1% Tween 80 solution and the diffusion cells maintained at 32° C. A 6% polyethylene glycol-20-oleyl ether is also suitable as a receptor fluid. The skin was mounted on the receptor, covered with the cup and fastened by a clamp. The air bubbles were removed from the receptor fluid and it was allowed to equilibrate for 30 minutes. COX-2 pharmaceutical compositions, according to the present invention, were brought into contact with the cadaver skin and the amount of drug which permeated through the cadaver skin in a 24 hour period was determined by high performance liquid chromatography.

Setting [3] is: Table 1, drug saturated solution, vehicle 70% EtOH, 32° C.
[4] abbreviates: Table 1, drug saturated solution, vehicle EtOH.
Setting [5] is: Table 6 (examples), Saturated Cb in 5% Pb, 67% EtOH.
Where [6] appears, read: Table 6 (examples), Saturated Vb in 5% Pb, 67% EtOH.

In brackets after ≈: the same amount, converted by molar mass. Where two headings read alike, the source gives them in different places.

What is called solubility is the concentration that dissolves in the medium under given conditions. For the compound `Cc1ccc(-c2cc(C(F)(F)F)nn2-c2ccc(S(N)(=O)=O)cc2)cc1` [Celecoxib, celecoxib], the solubility in series [1] (70% aqueous ethanol, aqueous with cosolvent or surfactant or cyclodextrin, thermodynamic from solid, Table 1, drug saturated solution, vehicle 70% EtOH, read-out: Solubility) was determined as 15.2 mg/mL (≈ 39.9 mM); in series [1] (Table 2, 70% aqueous ethanol solution), 15.2 mg/mL (≈ 39.9 mM); in series [1] (ethanol, organic solvent or mixture, thermodynamic from solid, Table 1, drug saturated solution, vehicle EtOH, read-out: Solubility), 91.4 mg/mL (≈ 240 mM); in series [1] (polyethylene glycol 400, organic solvent or mixture, thermodynamic from solid, Table 1, drug saturated solution, vehicle PEG 400, read-out: Solubility), 297 mg/mL (≈ 779 mM); in series [1] (propylene glycol, organic solvent or mixture, thermodynamic from solid, Table 1, drug saturated solution, vehicle PG, read-out: Solubility), 33.3 mg/mL (≈ 87.3 mM). For the same compound, the Flux in series [2] (setting [3]) came to 15.7 μg/cm^2 · day; in series [2] (setting [4]), 5.62 μg/cm^2 · day; in series [2] (setting [5]) it was 183 ± 153 μg/cm^2 · day.
For the compound `CCC(=O)NS(=O)(=O)c1ccc(-c2c(-c3ccccc3)noc2C)cc1` [Parecoxib, parecoxib], the concentration in solution in series [1] (aqueous with cosolvent or surfactant or cyclodextrin, thermodynamic from solid) (solubility) was 386 mg/mL (≈ 1040 mM). Further, the Flux in series [2] (setting [5]) is recorded as 74.7 ± 14.7 μg/cm^2 · day; in series [2] (setting [6]), 64.1 ± 11.3 μg/cm^2 · day. Moreover, in series [2] (parecoxib used as permeation enhancer), the “Effect as permeation enhancer on transdermal delivery of selective COX-2 drugs across the skin” value is “increase the transdermal delivery”.
Regarding `Cc1onc(-c2ccccc2)c1-c1ccc(S(N)(=O)=O)cc1` [Valdecoxib, valdecoxib], the Flux in series [2] (setting [3]) is listed as 12.8 μg/cm^2 · day; in series [2] (setting [4]), 1.44 μg/cm^2 · day; in series [2] (setting [6]), 108 ± 16.7 μg/cm^2 · day. Besides, the “Skin Flux” value in series [2] (% w/w: water 30, ethanol 30, isopropanol 10, 1,3-butanediol 22, oleyl alcohol 5, thymol 3) came out at 302 ± 48.9 μg/cm^2 · day; in series [2] (% w/w: water 30, ethanol 62, oleyl alcohol 5, thymol 3), 441 ± 160 μg/cm^2 · day; in series [2] (% w/w: water 33, ethanol 62, oleyl alcohol 5) it was 287 ± 23.9 μg/cm^2 · day.
